Results from patent US20150038430A1, “THERAPEUTIC PEPTIDOMIMETIC MACROCYCLES” (AILERON Therapeutics, Inc., priority 2008, published 2015).
Numbered stars: 1 amine (or outer) side, 2 acyl side, 3 side chain; on linkers, the order of the positions; unused ones are H or OH. Bridge positions count the residues as written; N and C are the ends. Square brackets hold non-standard residues; d marks the D form. Peptide text beside a SMILES is read from it. ξ: configuration not given here. ξαMeNle(6-ylidene) = CC(CCCC=[*:3])(N[*:1])C(=O)[*:2]; Nle = CCCC[C@H](N)C(=O)O

Columns and labels:
Bcl-xL = Bcl-xL (Homo sapiens, UniProt Q07817); experiment: Kd, μM | Bcl-xL
Description: (§1) Table printed on a drawing sheet, Figure 27
Head of the field: Kd, μM | Bcl-xL
Where the first naming reader finds the target: head: Kd, μM | Bcl-xL

Bcl-2 = experiment: Kd, μM | Bcl-2
Description: as §1
Head of the field: Kd, μM | Bcl-2
(§2) First copying reader's note: The last row (ABT-737) is a small-molecule comparator; the three plots above the table are not copied.
Where the first naming reader finds the target: head: Kd, μM | Bcl-2

Mcl-1 = experiment: Kd, μM | Mcl-1
Description: as §1
Head of the field: Kd, μM | Mcl-1
as §2
Where the first naming reader finds the target: head: Kd, μM | Mcl-1

A375 = format: cell-based, human; details: 24 h
Method: (§3) Cell viability assays shown in FIGS. 34-52 were performed according to a similar protocol. Cells were split at optimal cell density a day prior to the initiation of the study. The next day, cells were washed twice in serum-free Opti-MEM media and 4000 cells/well were added to each well in a final volume of […] Opti-MEM. For serum-free experiments, macrocycles were diluted from 2 mM stocks (100% DMSO) in sterile water to prepare 400 μM working solutions. A 40 μM solution was then generated by ten-fold dilution in assay buffer. The macrocycle and controls were then serially diluted two-fold in assay buffer in dosing plates to provide concentrations between 1.2 and 40 μM, respectively. For experiments in 2% human serum, macrocycles were diluted from 10 mM stocks (100% DMSO) in sterile water to prepare 1 mM working solutions. A 100 μM solution was generated by ten-fold dilution in assay buffer. The macrocycles and controls were then serially diluted two-fold in assay buffer in dosing plates to provide concentrations between 3 and 100 μM, respectively. 50 μl of each dilution was then added to the appropriate wells of the test plate to achieve final concentrations of the macrocycle between 0.6 to 20 μM (for serum free experiment) or 1.5 to 50 μM (for 2% serum experiment), respectively. Controls included wells without macrocycles containing the same concentration of DMSO as the macrocycle-containing wells, wells containing 0.1% Triton X-100, and wells containing no cells. Plates were incubated for 24 hours at 37° C. in a humidified 5% CO2 atmosphere. At the end of a 24 hr incubation period, a CellTiter-Glo Luminescent Cell Viability Assay was performed according to manufacturer's instructions (Promega, catalog #G7571) and the luminescence was measured using a BIO-TEK synergy HT Plate reader. Values were plotted as percent viable, i.e. as a percentage of the negative control value (derived from cells exposed to DMSO only). All assays were performed in duplicate.
(§4) The following tables summarize the EC50 values (μM) observed with peptidomimetic macrocycles of the invention in various cell lines: […]

RS4;11 = format: cell-based, human; details: 24 h
Method: as §3, §4

Molt-4 = format: cell-based, human; details: 24 h
Method: as §3, §4

MM1S = format: cell-based, human; details: 24 h
Method: as §3, §4

NCI-H82 (SCLC-MCL1+) = format: cell-based, human; details: 24 h
Method: as §3, §4

SEMK2 = format: cell-based, human; details: 24 h
Method: as §3, §4

Raji = format: cell-based, human; details: 24 h
Method: as §3, §4

Jurkat = format: cell-based, human; details: 24 h
Method: as §3, §4

MDA-MB231-Met = format: cell-based, human; details: 24 h
Method: as §3, §4

OVCAR8 = format: cell-based, human; details: 24 h
Method: as §3, §4

DHL-6 = format: cell-based, human; details: 24 h
Method: as §3, §4

PC3 = format: cell-based, human; details: 24 h
Method: as §3, §4

Sequence of Bcl-xL (Q07817 whole entry, looked up): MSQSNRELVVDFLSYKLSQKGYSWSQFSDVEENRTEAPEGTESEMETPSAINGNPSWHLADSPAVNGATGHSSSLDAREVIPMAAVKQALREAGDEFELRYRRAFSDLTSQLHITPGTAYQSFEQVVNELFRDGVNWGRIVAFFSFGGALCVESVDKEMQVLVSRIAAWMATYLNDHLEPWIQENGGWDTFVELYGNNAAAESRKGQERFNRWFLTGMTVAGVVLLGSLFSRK

Row | Kd (Bcl-xL) [µM] | Kd (Bcl-2) [µM] | Kd (Mcl-1) [µM] | EC50 (A375) [µM] | EC50 (RS4;11) [µM] | EC50 (Molt-4) [µM] | EC50 (MM1S) [µM] | EC50 (NCI-H82 (SCLC-MCL1+)) [µM] | EC50 (SEMK2) [µM] | EC50 (Raji) [µM] | EC50 (Jurkat) [µM] | EC50 (MDA-MB231-Met) [µM] | EC50 (OVCAR8) [µM] | EC50 (DHL-6) [µM] | EC50 (PC3) [µM] | Compound
1 | > 10 | > 10 | > 10 | > 20 | > 20 | > 20 | > 20 | > 20 | > 20 | > 20 | > 20 | > 20 | > 20 |  |  | CCCC[C@H](NC(=O)C1(C)CCCC=CCCCC(C)(NC(=O)[C@H](C)NC(=O)[C@H](CC(C)C)NC(=O)[C@H](Cc2c[nH]cn2)NC(=O)[C@H](CCCNC(=N)N)NC(=O)[C@H](C)NC(=O)[C@@H](NC(=O)[C@H](CC(N)=O)NC(=O)[C@H](CCCNC(=N)N)NC(=O)[C@@H](NC(=O)[C@@H](NC(=O)[C@H](CC(=O)O)NC(C)=O)[C@@H](C)CC)[C@@H](C)CC)[C@@H](C)CC)C(=O)N[C@@H](C(C)C)C(=O)N[C@@H](CCC(=O)O)C(=O)N[C@@H](CC(=O)O)C(=O)N1)C(=O)N[C@@H](CC(=O)O)C(=O)N[C@@H](CCCNC(=N)N)C(=O)N[C@@H](CO)C(=O)N[C@H](C(N)=O)[C@@H](C)CC (some centres unmarked) [SP-2] (Ac-DIIRNIARHLA[ξαMeNle(6-ylidene)]VED[ξαMeNle(6-ylidene)][Nle]DRSI-NH2; staple 12-16)
2 | 0.4 | > 10 | 0.12 |  | > 20 | > 20 | > 20 |  | > 20 | > 20 | > 20 |  |  | > 20 |  | CCCC[C@H](NC(=O)[C@H](CO)NC(=O)[C@H](CC(=O)O)NC(=O)CNC(=O)[C@@H](NC(=O)[C@H](CCC(N)=O)NC(=O)[C@H](C)NC(=O)[C@H](CC(C)C)NC(=O)[C@H](Cc1c[nH]cn1)NC(=O)[C@H](CCCNC(=N)N)NC(=O)[C@H](C)NC(=O)[C@@H](NC(=O)[C@H](CC(N)=O)NC(=O)[C@H](CCCNC(=N)N)NC(=O)[C@@H](NC(=O)[C@@H](NC(=O)[C@H](CC(=O)O)NC(C)=O)[C@@H](C)CC)[C@@H](C)CC)[C@@H](C)CC)C(C)C)C(=O)N[C@@H](CC(=O)O)C(=O)N[C@@H](CCCNC(=N)N)C(=O)N[C@@H](CO)C(=O)N[C@H](C(N)=O)[C@@H](C)CC [SP-3] (HELM PEPTIDE1{[ac].D.I.I.R.N.I.A.R.H.L.A.Q.V.G.D.S.[Nle].D.R.S.I.[am]}$$$$V2.0)
3 | > 10 | > 10 | > 10 |  |  |  |  |  |  |  |  |  |  |  |  | CC[C@H](C)[C@H](NC(C)=O)C(=O)N[C@@H](Cc1c[nH]c2ccccc12)C(=O)N[C@H](C(=O)N[C@@H](C)C(=O)N[C@@H](CCC(N)=O)C(=O)N[C@@H](CCC(=O)O)C(=O)N[C@@H](CC(C)C)C(=O)N[C@@H](CCCNC(=N)N)C(=O)NC1(C)CCCC=CCCCC(C)(C(=O)N[C@@H](Cc2ccccc2)C(=O)N[C@@H](CC(N)=O)C(=O)N[C@@H](C)C(=O)N[C@@H](Cc2ccc(O)cc2)C(=O)N[C@@H](Cc2ccc(O)cc2)C(=O)N[C@@H](C)C(=O)N[C@@H](CCCNC(=N)N)C(=O)N[C@@H](CCCNC(=N)N)C(N)=O)NC(=O)[C@H](CC(=O)O)NC(=O)[C@H](CCC(=O)O)NC(=O)[C@H]([C@@H](C)CC)NC1=O)[C@@H](C)CC (some centres unmarked) [SP-5] (Ac-IWIAQELR[ξαMeNle(6-ylidene)]IED[ξαMeNle(6-ylidene)]FNAYYARR-NH2; staple 9-13)
4 | 0.25 | 2.8 | < 0.1 | 4.3 | 3.7 | 1.6 | 1.9 | 1.2 | 2.6 | 2.7 | 0.9 | 2 | 3.2 | 0.9 | 4.6 | CC[C@H](C)[C@H](NC(C)=O)C(=O)N[C@@H](Cc1c[nH]c2ccccc12)C(=O)N[C@H](C(=O)N[C@@H](C)C(=O)N[C@@H](CCC(N)=O)C(=O)N[C@@H](C)C(=O)N[C@@H](CC(C)C)C(=O)N[C@@H](CCCNC(=N)N)C(=O)NC1(C)CCCC=CCCCC(C)(C(=O)N[C@@H](Cc2ccccc2)C(=O)N[C@@H](CC(N)=O)C(=O)N[C@@H](C)C(=O)N[C@@H](Cc2ccc(O)cc2)C(=O)N[C@@H](Cc2ccc(O)cc2)C(=O)N[C@@H](C)C(=O)N[C@@H](CCCNC(=N)N)C(=O)N[C@@H](CCCNC(=N)N)C(N)=O)NC(=O)[C@H](CC(=O)O)NC(=O)CNC(=O)[C@H]([C@@H](C)CC)NC1=O)[C@@H](C)CC (some centres unmarked) [SP-11] (Ac-IWIAQALR[ξαMeNle(6-ylidene)]IGD[ξαMeNle(6-ylidene)]FNAYYARR-NH2; staple 9-13)
